ChEMBL document CHEMBL1134401, “Property-based design: optimization of drug absorption and pharmacokinetics” (J Med Chem, 2001)

Assays:
[1] = Plasma clearance of the compound
[2] = Half life was measured as time taken to decrease half of its initial concentration
[3] = Volume of distribution of the compound; settings: in vivo
[4] = Partition coefficient (logD); settings: octanol/water

clearance [1] | half-life [2] | Vd [3] | logD [4] | Structure (SMILES)
80 mL/min/kg | 0.33 h | 1.2 L/kg | – | CO[C@H]1/C=C/O[C@@]2(C)Oc3c(C)c(O)c4c(O)c(cc(O)c4c3C2=O)NC(=O)/C(C)=C\C=C\[C@H](C)[C@H](O)[C@@H](C)[C@@H](O)[C@@H](C)[C@H](OC(C)=O)[C@@H]1C [RIFAMYCIN]
32 mL/min/kg | – | 8.8 L/kg | – | CO[C@H]1/C=C/O[C@@]2(C)Oc3c(C)c(O)c4c(O)c(c(/C=N/N5CCN(C)CC5)c(O)c4c3C2=O)NC(=O)/C(C)=C\C=C\[C@H](C)[C@H](O)[C@@H](C)[C@@H](O)[C@@H](C)[C@H](OC(C)=O)[C@@H]1C [RIFAMPIN]
80 mL/min/kg | 45 h | 266 L/kg | – | CO[C@H]1/C=C/O[C@@]2(C)Oc3c(C)c(O)c4c(c3C2=O)C2=NC3(CCN(CC(C)C)CC3)NC2=C(NC(=O)/C(C)=C\C=C\[C@H](C)[C@H](O)[C@@H](C)[C@@H](O)[C@@H](C)[C@H](OC(C)=O)[C@@H]1C)C4=O [RIFABUTIN]
– | – | – | 4.8 | CCOC(=O)C1=C(C)NC(C)=C(C(=O)OC)C1c1cccc(Cl)c1Cl (stereo unspecified) [FELODIPINE]
21 mL/min/kg | 4 h | 3.8 L/kg | 4.2 | CCOC(=O)C1=C(C)NC(C)=C(C(=O)OC)C1c1cccc([N+](=O)[O-])c1 (stereo unspecified) [NITRENDIPINE]

Structure (SMILES) | clearance [1] | half-life [2] | Vd [3] | logD [4]
COC(=O)C1=C(C)NC(C)=C(C(=O)OC)C1c1ccccc1[N+](=O)[O-] [NIFEDIPINE] | – | 1.9 h | 1 L/kg | –
CCOC(=O)C1=C(COCCN)NC(C)=C(C(=O)OC)C1c1ccccc1Cl (stereo unspecified) [AMLODIPINE] | – | – | – | 1.8
